The values that follow come from ChEMBL document CHEMBL3886743, “Immune system modulators” (2016).

In this experiment the target is T1, Toll-like receptor 9 (Homo sapiens, UniProt Q9NR96).
T1 sequence (Q9NR96 whole entry): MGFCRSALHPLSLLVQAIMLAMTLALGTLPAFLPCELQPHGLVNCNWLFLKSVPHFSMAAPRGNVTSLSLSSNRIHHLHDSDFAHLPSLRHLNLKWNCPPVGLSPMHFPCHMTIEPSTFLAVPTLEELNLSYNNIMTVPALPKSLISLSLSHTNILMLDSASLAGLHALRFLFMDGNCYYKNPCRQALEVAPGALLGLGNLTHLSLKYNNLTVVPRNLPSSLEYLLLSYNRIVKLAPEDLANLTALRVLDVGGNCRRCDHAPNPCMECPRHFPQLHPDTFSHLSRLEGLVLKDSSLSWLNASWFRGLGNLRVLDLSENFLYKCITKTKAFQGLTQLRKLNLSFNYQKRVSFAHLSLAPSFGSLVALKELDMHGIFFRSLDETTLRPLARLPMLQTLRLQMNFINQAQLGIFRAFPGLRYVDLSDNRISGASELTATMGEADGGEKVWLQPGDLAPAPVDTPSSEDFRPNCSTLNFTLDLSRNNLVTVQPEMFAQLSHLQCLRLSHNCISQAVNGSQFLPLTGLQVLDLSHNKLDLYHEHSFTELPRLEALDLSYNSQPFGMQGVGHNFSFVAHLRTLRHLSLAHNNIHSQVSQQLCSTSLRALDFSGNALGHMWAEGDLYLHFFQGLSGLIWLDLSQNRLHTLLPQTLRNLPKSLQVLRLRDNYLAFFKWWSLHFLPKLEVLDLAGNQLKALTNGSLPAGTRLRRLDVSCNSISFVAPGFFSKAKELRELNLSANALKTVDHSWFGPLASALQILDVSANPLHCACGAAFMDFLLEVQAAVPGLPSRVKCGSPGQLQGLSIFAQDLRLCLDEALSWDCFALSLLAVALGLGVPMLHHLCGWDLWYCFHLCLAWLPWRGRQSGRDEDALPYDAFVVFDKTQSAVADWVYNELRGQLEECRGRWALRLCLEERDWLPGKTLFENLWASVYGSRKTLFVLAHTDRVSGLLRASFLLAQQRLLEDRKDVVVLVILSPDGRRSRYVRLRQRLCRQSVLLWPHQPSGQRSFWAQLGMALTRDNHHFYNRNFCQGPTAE
The experiment can be described thus: TLR9 Antagonism Assay: Day 1: A cell suspension of HEK-Blue™-hTLR9 cells at ~450,000 cells per ml in test medium which contained 5% (v/v) heat inactivated FBS was prepared. 180 μl of cell suspension (~80,000 cells) was added per well of a flat-bottom 96-well plate and place in an incubator at 37° C. for overnight. Day 2: Test compounds were serially diluted in test medium, generally starting at 10 μM, and diluting by 3 fold in a 96 well master plate. 20 μl of diluted test compound was transferred using a 12 channel multi-channel pipet to the cell plate and incubated at 37° C. for 1 hour. Then 20 μl of an hTLR9 agonist (such as ODN 2006, 1 μM) was added to each well and the plate incubated at 37° C. overnight. Day 3: Invivogen's QUANTI-Blue™ was prepared following the manufacturer's instructions. […] of resuspended QUANTI-Blue™ was added per well of a flat bottom 96-well plate. 20 μl per well of induced HEK-Blue™-hTLR9 cells supernatant was then added to the plate and the plate was incubated at 37° C. for 1-3 h. SEAP levels were determined using a spectrophotometer at 620 nm.

Broadly, the IC50 is the midpoint of a concentration-inhibition curve. Lower therefore signals inhibition by little substance. As for `CCN1CCN(c2ccc(-c3nc(NCCN4CCOCC4)c4nc[nH]c4n3)cc2)CC1`, the IC50 is 0.142 µM.

Compound `Oc1nc2c(NCCN3CCOCC3)nc(-c3ccccc3)nc2n1CCN1CCOCC1` registered an IC50 of 8.01 µM.

Compound `CN1CCN(c2ccc(-c3nc(NCCN4CCOCC4)c4nc[nH]c4n3)cc2)CC1` had a 50% inhibitory concentration (IC50) of 0.072 µM.

On to `CN1CCN(CCNc2nc(-c3ccccc3)nc3c2ncn3CCN2CCOCC2)CC1`, for which the IC50 came to 3.29 µM.

`CCOC(=O)Cn1cnc2c(NCCN3CCOCC3)nc(-c3ccc(N4CCN(C)CC4)cc3)nc21` gave an IC50 of 5.2 µM. This IC50 lies about 1.6-fold higher than the previous one.

Regarding `CN1CCN(CCNc2nc(-c3ccccc3)nc3c2ncn3CCN2CCN(C)CC2)CC1`, the IC50 came out at 0.604 µM.

For the compound `c1ccc(-c2nc(NCCN3CCOCC3)c3ncn(CCN4CCOCC4)c3n2)cc1`, the IC50 is 7.53 µM.

The compound `CCCCSc1nc(NCCN2CCOCC2)c2nc(O)n(CCN3CCOCC3)c2n1` gave an IC50 of 11.1 µM. This IC50 and that of the compound before are within 1.5-fold of each other.
